In PubChem BioAssay (NCI) one finds GI50 and TGI data, which are given here for 30 compounds.

Values joined by “and” are separate entries in the source; they are usually repeats but may differ in a detail not shown here. Equal values may be shown once.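 Following 48 hours of exposure in 96-well plates, responses at five concentrations were used to interpolate endpoints linearly. GI50 is the concentration that inhibits growth by half. Definition used: TGI = concentration required for complete inhibition of growth.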 Bounds are passed on as bounds.

The assay deals with MDA-MB-468 breast. Description: inhibition of tumour cell growth, NCI panel, 48 h.

In the case of `Cc1nnc([S-])s1.[Au+].c1ccc([PH+](c2ccccc2)c2ccccc2)cc1`, the GI50 was 1270 nM and the TGI was found to be 2860 nM.

On to `Cc1ccc(NCSc2ccc(Cl)cc2)cc1`, for which the GI50 is 2680 nM and the TGI was 8050 nM. Consider `COc1ccc2nc3ccc(OC)cc3c(SCCCN)c2c1`, for which the GI50 is 1400 nM and the TGI amounted to 2940 nM. Take `COC(=O)c1cc(Nc2ccc(O)c3c2C(=O)c2c([N+](=O)[O-])ccc(O)c2C3=O)cc(C(=O)OC)c1`: the GI50 was 16500 nM and the TGI is 98500 nM. For the compound `N#CC1c2ccccc2-c2ccccc2N1C(=O)c1ccccc1` (centres undefined), the GI50 was 383 nM and the TGI is above 26100 nM. `O=C1c2cccnc2C(=O)c2c1c(C(=O)OCCCN1CCOCC1)c1ccccn21`: the GI50 is 1390 nM and the TGI was 7100 nM. As to `COc1ccc(/C=C\c2cc(OC)c(OC)c(OC)c2)cc1OP(=O)(O)O`, the GI50 was 54.3 nM and the TGI was above 100000 nM.

Take `O=C1OC(c2ccc(O)cc2)(c2ccc(O)cc2)c2cccc3cccc1c23`: the GI50 is 4060 nM and the TGI was found to be 21700 nM. Regarding `COC(=O)[C@H](Cc1ccccc1)NC(=O)c1csc([C@@H](C[C@H](C(C)C)N(C)C(=O)[C@@H](NC(=O)[C@H]2CCCCN2C)C2CC2)OC(C)=O)n1`, the GI50 was 44.1 nM and the TGI was above 25000 nM.

Turning to `Cn1c(=O)n(-c2ccc(C(C)(C)C#N)cc2)c2c3cc(-c4cnc5ccccc5c4)ccc3ncc21`, the GI50 was 11.8 nM and 5.31 nM and < 10.5 nM; the TGI was 50.5 nM and 28.5 nM and 64.2 nM. With `CC[C@]12C=CCN3CC[C@]4(C(=C(C(=O)OC)C1)Nc1cc(O)ccc14)[C@@H]32`, the GI50 was 9380 nM and the TGI came to 44000 nM. Turning to `COc1cccc(-c2nn(-c3ccccc3)cc2-c2ccnc(NCCNC(=O)Nc3ccc(Cl)c(Cl)c3)c2)c1`, the GI50 was 1700 nM and the TGI stood at 4540 nM. Take `Cc1ccc([P+](Cc2ccc([N+](=O)[O-])cc2)(c2ccc(C)cc2)c2ccc(C)cc2)cc1`: the GI50 is 660 nM and the TGI was found to be 5800 nM. As for `CN1C(=O)c2cc(Cl)nc3c(NC(=O)c4cccc(Cl)c4)c(Cl)c(NC(=O)c4cccc(Cl)c4)c1c23`, the GI50 was 1990 nM and the TGI stood at 6050 nM. For `CCCCCCCCCCCCCCCC[N+]1(CC)CCCC1` the same measures were 184 nM and 799 nM. On to `C/C(=C(/c1ccc(O)cc1)c1ccc(OCCN2CCCC2)cc1)c1ccccc1`, for which the GI50 is 1840 nM and the TGI was 4470 nM. Consider `COc1cc[nH]c1/C=C1\C(=O)Nc2ccc(F)c(C#CC3(O)CCOCC3)c21`, for which the GI50 is 710 nM and the TGI turned out to be 2900 nM. On the same counts, the results for `Cc1nn(-c2ccccc2)c2c1C1C(=C(c3ccc(Cl)cc3)N2)C(=O)Nc2ccccc21` (centres undefined) are 3340 nM and 19500 nM. For `CCOC(=O)c1[nH]c2c(c1C)-c1[nH]c(=O)c(S(=O)(=O)c3ccccc3)cc1SC2` the same measures were 54000 nM and above 100000 nM. `CCCC/C(=N\N=C(N)N)c1ccc(F)cc1`: the GI50 is 590 nM and the TGI stood at 5810 nM. Consider `NS(=O)(=O)c1ccc(Nc2nc(Nc3ccccc3)nc(-n3nc(-c4ccccc4)cc3-c3ccccc3)n2)cc1`, for which the GI50 was 2310 nM and the TGI came out at 6950 nM. Take `COc1cc(C2C3=C(COC3=O)N(CCO)c3cc4c(cc32)CCC4)cc(OC)c1O` (centres undefined): the GI50 is 89.1 nM.

Take `COc1ccccc1Cn1cc2c(c1)-c1oncc1CC2`: the GI50 was 217 nM and the TGI was found to be 697 nM. Turning to `Oc1ccc(CSc2nnc(-c3cnccn3)o2)c2cccnc12`, the GI50 was 639 nM and the TGI turned out to be 7800 nM.

With `COc1ccccc1C(=O)c1cnc(NC2CCN(S(C)(=O)=O)CC2)nc1N`, the GI50 was 7790 nM and the TGI is above 25000 nM. Consider `O=C1C=C(Nc2cccc(Br)c2)c2ccccc2C1=O`, for which the GI50 was 17600 nM and the TGI turned out to be 83800 nM.

Regarding `CC1Cc2c(N(C)C)ncnc2N(C)c2ccc(Cl)cc21` (centres undefined), the GI50 was 2660 nM and the TGI was 67700 nM. As to `Nc1ncnc2occ(-c3ccc(NC(=O)Nc4cc(C(F)(F)F)cc(C(F)(F)F)c4)cc3)c12`, the GI50 is 2750 nM and the TGI is 7810 nM. `Oc1ccc(-c2nnc(SCc3ccc(O)c4ncccc34)o2)cc1`: the GI50 is 2000 nM and the TGI is 8060 nM. In the case of `CCN(CC)CCC(=O)Nc1ccc(Cn2nnc3c2C(=O)c2nnn(Cc4ccc(NC(=O)CCN(CC)CC)cc4)c2C3=O)cc1`, the GI50 is 170 nM and the TGI was 374 nM.
